{"source": "patent US6528517B1", "about": "“Synthesis of quinobenzoxazine analogues with topoisomerase II and quadruplex interactions for use as antineoplastic agents” (Board of Regents, The University of Texas System, priority 1998, dated 2003)", "key": {"Raji lymphoma": {"system": "Raji lymphoma", "assay": "Cancer cell growth inhibition assay (MTT)", "format": "cell-based, human", "procedure": "(§1) Exponentially growing cells in 0.1 ml medium were seeded on Day 0 in 96-well microtiter plates. On Day 1, 0.1-ml aliquots of medium containing graded concentrations test agent were added in duplicate to the cell plates. After incubation at 37° C. in a humidified incubator, the plates were centrifuged briefly (1-2 min at 1000 rpm), and 100 μl of the growth medium was removed. Cell cultures were incubated with 50 μl of 3-(4,5-dimethylthiazyl-2-yl)-2,5-diphenyltetrazolium bromide MTT, 1 mg/ml in Dubecco's PBS for 4 h at 37° C. The resulting purple formazan precipitate was solubilized with 200 μl of 0.4 N HCl in isopropyl alcohol. Absorbance was quantitated using a Bio-Rad Model 3550 microplate reader at a test wavelength of 570 nm and a reference wavelength of 630 nm. Absorbance values were transferred to a 486 personal computer, and the IC50 values were determined using the computer program EZ-ED50 (Chen et al., 1993)."}, "HT-29 colon": {"system": "HT-29 colon", "assay": "Cancer cell growth inhibition assay (MTT)", "format": "cell-based, human", "procedure": "as §1"}, "MDA-231 breast": {"system": "MDA-231 breast", "assay": "Cancer cell growth inhibition assay (MTT)", "format": "cell-based, human", "procedure": "as §1"}, "H226 non-small-cell lung": {"system": "H226 non-small-cell lung", "assay": "Cancer cell growth inhibition assay (MTT)", "format": "cell-based, human", "procedure": "as §1"}, "DU-145 prostate": {"system": "DU-145 prostate", "assay": "Cancer cell growth inhibition assay (MTT)", "format": "cell-based, human", "procedure": "as §1"}, "B16 melanoma": {"system": "B16 melanoma", "assay": "Cancer cell growth inhibition assay (MTT)", "format": "cell-based, murine", "procedure": "as §1"}, "human topoisomerase II": {"biological_target": "T1, human topoisomerase II (Homo sapiens, UniProt P11388)", "T1 construct": "purchased TopoGEN, Inc", "T1 sequence (P11388 whole entry)": "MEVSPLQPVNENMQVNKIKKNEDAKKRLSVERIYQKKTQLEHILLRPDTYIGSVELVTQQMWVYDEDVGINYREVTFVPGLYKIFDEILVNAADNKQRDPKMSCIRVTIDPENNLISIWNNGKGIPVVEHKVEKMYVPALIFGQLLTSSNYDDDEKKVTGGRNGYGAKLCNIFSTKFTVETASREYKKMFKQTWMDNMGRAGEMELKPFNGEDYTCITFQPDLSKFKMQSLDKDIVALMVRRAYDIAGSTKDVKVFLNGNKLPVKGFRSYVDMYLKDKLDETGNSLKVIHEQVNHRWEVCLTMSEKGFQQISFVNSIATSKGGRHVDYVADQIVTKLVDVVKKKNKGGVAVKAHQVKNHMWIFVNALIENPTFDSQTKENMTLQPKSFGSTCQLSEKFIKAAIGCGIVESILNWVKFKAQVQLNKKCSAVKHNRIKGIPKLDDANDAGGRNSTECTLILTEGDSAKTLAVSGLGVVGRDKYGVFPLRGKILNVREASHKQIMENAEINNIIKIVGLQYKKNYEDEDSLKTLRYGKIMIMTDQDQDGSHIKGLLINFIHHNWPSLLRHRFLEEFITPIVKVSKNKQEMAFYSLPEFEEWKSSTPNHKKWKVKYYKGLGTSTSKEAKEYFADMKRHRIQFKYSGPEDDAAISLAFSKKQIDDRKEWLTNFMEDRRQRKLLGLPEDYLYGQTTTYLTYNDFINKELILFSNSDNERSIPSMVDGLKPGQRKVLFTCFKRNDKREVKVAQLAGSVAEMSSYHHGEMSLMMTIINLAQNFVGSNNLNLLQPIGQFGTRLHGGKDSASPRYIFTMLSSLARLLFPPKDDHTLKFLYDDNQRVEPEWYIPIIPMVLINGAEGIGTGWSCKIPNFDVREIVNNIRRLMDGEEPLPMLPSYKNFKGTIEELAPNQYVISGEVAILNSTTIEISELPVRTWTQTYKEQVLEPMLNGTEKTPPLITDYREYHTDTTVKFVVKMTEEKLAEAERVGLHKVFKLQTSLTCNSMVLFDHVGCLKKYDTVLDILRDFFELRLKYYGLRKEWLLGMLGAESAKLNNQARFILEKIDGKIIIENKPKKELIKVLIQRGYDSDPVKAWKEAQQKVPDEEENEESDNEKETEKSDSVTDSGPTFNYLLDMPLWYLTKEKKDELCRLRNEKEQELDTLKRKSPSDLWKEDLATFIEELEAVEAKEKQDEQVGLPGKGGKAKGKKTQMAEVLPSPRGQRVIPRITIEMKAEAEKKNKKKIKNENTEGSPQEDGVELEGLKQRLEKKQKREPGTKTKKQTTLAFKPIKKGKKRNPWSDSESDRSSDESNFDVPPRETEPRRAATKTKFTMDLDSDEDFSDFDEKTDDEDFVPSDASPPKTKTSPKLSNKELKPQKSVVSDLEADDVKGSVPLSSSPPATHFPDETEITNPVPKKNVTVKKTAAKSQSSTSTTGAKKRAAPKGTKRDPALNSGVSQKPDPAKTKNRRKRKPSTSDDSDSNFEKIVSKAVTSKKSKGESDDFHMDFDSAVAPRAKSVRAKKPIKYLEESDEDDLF", "assay": "Decatenation assay (catenated to decatenated KDNA)", "format": "biochemical", "settings": "drug concentration that inhibits 50% of conversion of catenated to decatenated KDNA; read-out: topoisomerase II inhibition IC50", "procedure": "Kinetoplast DNA (KDNA), human topoisomerase II (170 KDa form), and DNA Unwinding Kit including supercoiled pHOT1 DNA, relaxed DNA marker, buffers, and human topoisomerase I were purchased from TopoGEN, Inc. Agarose was purchased from Fisher. Quinobenzoxazine A-62176 (S-enantiomer) was provided by Abbott Laboratories or prepared by published procedure (Chu and Maleczka, Jr., 1987).\n0.25 μg of KDNA was incubated with various concentrations of the quinobenzoxazines in a 20-μl reaction mixture containing 50 mM Tris-HCl (pH 8), 120 mM KCl, 10 mM MgCl2, and 0.5 mM each of ATP, dithiothreitol, and […] BSA for 10 min. Two units of human topoisomerase II (170 KDa form) were added to the mixture, which was then incubated at 37° C. for 30 min. The reaction was terminated with 0.1 volume of stop buffer (5% sarkosyl, 0.025% bromophenol blue, and 50% glycerol). The decatenation products were analyzed on 1% agarose gels run with 0.5 μg/ml ethidium bromide. The gels were scanned by FluoroImager and analyzed by ImageQuaNT software (Molecular Dynamics)."}, "supercoiled pHOT1 DNA": {"system": "supercoiled pHOT1 DNA", "assay": "DNA unwinding assay", "format": "biochemical", "settings": "concentration shifting topoisomers to the middle position between relaxed and supercoiled bands", "procedure": "A 22 μl mixture of 0.25 μg of supercoiled pHOT1 DNA, 5 units of topoisomerase I in topoisomerase I buffer (provided with the kit) was incubated at 37° C. for 30 min. Two μl of various concentrations of drug was added, and the incubation was continued for another 30 min. The reactions were terminated by addition of SDS to 1%. Proteinase K was added to the reaction mixtures to ca. 50 μg/ml, and the reaction mixtures were incubated for 15-20 min at 56° C. After adding 0.1 volume of 10×gel loading buffer, the reaction mixtures were extracted with an equal volume of CIA (Chloroform:isoamyl Alcohol; 24:1). The samples were loaded on an 1% agarous gel that was cast in TPE buffer (36 mM Tris-HCl, pH 7.8, 1 mM EDTA, 30 mM NaH2PO4) and 0.2 μg/ml Chloroquine. The gel was run in TPE buffer at room temperature at 10 volts for 20 h, destained in water for 15 min, stained in 0.05 μg/ml ethidium bromide for 15 min, and destained again in water for 15 min. The gel was then photographed, scanned by FluoroImager, and analyzed by ImageQuaNT software (Molecular Dynamics)."}, "[1]": {"system": "human DNA G-quadruplex d(TTAGGG)4", "assay": "NMR imino proton titration with G-quadruplex DNA", "format": "binding", "settings": "overall stoichometry 1:1", "procedure": "(C) Compounds may be selected for their ability to interact with human DNA G-quadruplex as indicated by NMR spectroscopy. The imino proton spectrum (9-12 ppm) of a solution of d(TTAGGG)4 in D2O/H2O (10:90) was determined at 500 MHz. Aliquot of N,N′-bis(2-piperdinoethyl)-3,4,9,10-perylenetetracarboxylic acid diimide were added and the imino proton spectrum recorded."}}, "data": [{"smiles": "Cl.NC1CCN(c2c(F)cc3c(=O)c(C(=O)O)cn4c3c2Oc2cc3ccccc3cc2-4)C1", "note": "(centres unmarked) [Compound 3b, 1-(3-Aminopyrrolidin-1-yl)-2-fluoro-4-oxo-4H-pyrido[3,2,1-k,l]-benzo[g]-phenoxazine-5-carboxylic Acid]", "values": [{"measurement": "IC50", "setting": "Raji lymphoma", "value": "0.032 ± 0.005", "unit": "µM"}, {"measurement": "IC50", "setting": "HT-29 colon", "value": "0.022 ± 0.003", "unit": "µM"}, {"measurement": "IC50", "setting": "MDA-231 breast", "value": "0.021 ± 0.002", "unit": "µM"}, {"measurement": "IC50", "setting": "H226 non-small-cell lung", "value": "0.022 ± 0.015", "unit": "µM"}, {"measurement": "IC50", "setting": "DU-145 prostate", "value": "0.048 ± 0.008", "unit": "µM"}, {"measurement": "IC50", "setting": "B16 melanoma", "value": "0.14 ± 0.015", "unit": "µM"}, {"measurement": "IC50", "setting": "human topoisomerase II", "value": 0.42, "unit": "µM"}, {"measurement": "DNA unwinding concn", "setting": "supercoiled pHOT1 DNA", "value": 15, "unit": "µM"}]}, {"smiles": "Cl.NC1CCN(c2c(F)cc3c(=O)c(C(=O)O)cn4c3c2Oc2cc3ccccc3cc2-4)C1", "note": "(centres unmarked) [Compound 3c, 1-(3-Aminopyrrolidin-1-yl)-2-fluoro-4-oxo-4H-pyrido[3,2,1-k,l]-benzo[g]-phenoxazine-5-carboxylic Acid]", "values": [{"measurement": "IC50", "setting": "Raji lymphoma", "value": "0.029 ± 0.005", "unit": "µM"}, {"measurement": "IC50", "setting": "HT-29 colon", "value": "0.023 ± 0.003", "unit": "µM"}, {"measurement": "IC50", "setting": "MDA-231 breast", "value": "0.01 ± 0.002", "unit": "µM"}, {"measurement": "IC50", "setting": "H226 non-small-cell lung", "value": "0.014 ± 0.002", "unit": "µM"}, {"measurement": "IC50", "setting": "DU-145 prostate", "value": "0.03 ± 0.006", "unit": "µM"}, {"measurement": "IC50", "setting": "B16 melanoma", "value": "0.02 ± 0.006", "unit": "µM"}, {"measurement": "IC50", "setting": "human topoisomerase II", "value": 0.44, "unit": "µM"}, {"measurement": "DNA unwinding concn", "setting": "supercoiled pHOT1 DNA", "value": 13, "unit": "µM"}]}, {"smiles": "O=C(O)c1cn2c3c(c(N4CCNCC4)c(F)cc3c1=O)Oc1ccc3ccccc3c1-2", "note": "[Compound 4, 1-(Piperazin-1-yl)-2-fluoro-4-oxo-4H-pyrido[3,2,1-k,l]-benzo[h]phenoxazine-5-carboxylic Acid]", "values": [{"measurement": "IC50", "setting": "Raji lymphoma", "value": "0.8 ± 0.05", "unit": "µM"}, {"measurement": "IC50", "setting": "HT-29 colon", "value": "2 ± 0.2", "unit": "µM"}, {"measurement": "IC50", "setting": "MDA-231 breast", "value": "2.2 ± 0.3", "unit": "µM"}, {"measurement": "IC50", "setting": "H226 non-small-cell lung", "value": "2.1 ± 0.2", "unit": "µM"}, {"measurement": "IC50", "setting": "DU-145 prostate", "value": "0.84 ± 0.27", "unit": "µM"}, {"measurement": "IC50", "setting": "B16 melanoma", "value": "2.1 ± 0.3", "unit": "µM"}, {"measurement": "IC50", "setting": "human topoisomerase II", "value": 9.6, "unit": "µM"}, {"measurement": "DNA unwinding concn", "setting": "supercoiled pHOT1 DNA", "value": ">100", "unit": "µM"}]}, {"smiles": "O=C(O)c1cn2c3c(c(N4CCNCC4)c(F)cc3c1=O)Oc1c-2ccc2ccccc12", "note": "[Compound 5, 1-(Piperazin-1-yl)-2-fluoro-4-oxo-4H-pyrido[3,2,1-k,l]-benzo[f]phenoxazine-5-carboxylic Acid]", "values": [{"measurement": "IC50", "setting": "Raji lymphoma", "value": "0.21 ± 0.04", "unit": "µM"}, {"measurement": "IC50", "setting": "HT-29 colon", "value": "0.36 ± 0.09", "unit": "µM"}, {"measurement": "IC50", "setting": "MDA-231 breast", "value": "0.38 ± 0.05", "unit": "µM"}, {"measurement": "IC50", "setting": "H226 non-small-cell lung", "value": "0.2 ± 0.03", "unit": "µM"}, {"measurement": "IC50", "setting": "DU-145 prostate", "value": "0.14 ± 0.04", "unit": "µM"}, {"measurement": "IC50", "setting": "B16 melanoma", "value": "0.65 ± 0.06", "unit": "µM"}, {"measurement": "IC50", "setting": "human topoisomerase II", "value": 1.84, "unit": "µM"}, {"measurement": "DNA unwinding concn", "setting": "supercoiled pHOT1 DNA", "value": ">100", "unit": "µM"}]}, {"smiles": "O=C(O)c1cn2c3c(c(N4CCNCC4)c(F)cc3c1=O)Oc1cc3ccccc3cc1-2", "note": "[Compound 6, 1-(Piperazin-1-yl)-2-fluoro-4-oxo-4H-pyrido[3,2,1-k,l]-benzo[g]phenoxazine-5-carboxylic Acid]", "values": [{"measurement": "IC50", "setting": "Raji lymphoma", "value": "0.0072 ± 0.0076", "unit": "µM"}, {"measurement": "IC50", "setting": "HT-29 colon", "value": "6.8 ± 1.8", "unit": "µM"}, {"measurement": "IC50", "setting": "MDA-231 breast", "value": "> 1000", "unit": "µM"}, {"measurement": "IC50", "setting": "H226 non-small-cell lung", "value": "> 100", "unit": "µM"}, {"measurement": "IC50", "setting": "DU-145 prostate", "value": "0.075 ± 0.032", "unit": "µM"}, {"measurement": "IC50", "setting": "B16 melanoma", "value": "0.045 ± 0.048", "unit": "µM"}, {"measurement": "IC50", "setting": "human topoisomerase II", "value": 0.64, "unit": "µM"}, {"measurement": "DNA unwinding concn", "setting": "supercoiled pHOT1 DNA", "value": ">100", "unit": "µM"}]}, {"smiles": "O=C1c2ccc3c4ccc5c6c(ccc(c7ccc(c2c37)C(=O)N1CCN1CCCCC1)c64)C(=O)N(CCN1CCCCC1)C5=O", "note": "[N,N′-bis(2-piperdinoethyl)-3,4,9,10-perylenetetracarboxylic acid diimide]", "values": [{"measurement": "upfield shift of G6 imino resonance", "setting": "[1]", "value": "> 0.2", "unit": "ppm"}]}]}
